Results published in patent US11071731B2, “Allosteric modulators of the mu opioid receptor” (Chiromics, LLC, priority 2017, dated 2021).

Legend:
mu opioid receptor (MOR) [1] = biological target: T1, mu opioid receptor (MOR) (Homo sapiens, UniProt P35372); assay: Hit Hunter cAMP signaling assay (adenylyl cyclase inhibition), PAM mode with EC20 endomorphin-1; format: cell-based; conditions: for cAMP Max. Resp.: maximal response for adenylyl cyclase inhibition
mu opioid receptor (MOR) [2] = biological target: T1, mu opioid receptor (MOR); assay: PathHunter β-arrestin recruitment assay, PAM mode with EC20 endomorphin-1; format: cell-based; conditions: for β-arr Max. Resp.: maximal response for β-arrestin recruitment; for β-arrestin Max Response / EC50: β-arrestin recruitment
Summary of the method: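 Enzyme fragment complementation read-out: β-gal ED fragment fused to receptor, EA fused to β-arrestin, recruitment restoring β-gal activity detected by chemiluminescence. EC50 and percent maximal response derived for each compound.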

[3] = adenylyl cyclase inhibition, activity switching by MOR PAMs
[4] = adenylyl cyclase inhibition, activity switching by MOR PAMs, read-out: cAMP EC50
[5] = adenylyl cyclase inhibition, read-out: cAMP EC50
[6] = activity switching by MOR PAMs, read-out: β-arrestin EC50
[7] = cAMP EC50, adenylyl cyclase inhibition

T1 sequence (P35372 whole entry): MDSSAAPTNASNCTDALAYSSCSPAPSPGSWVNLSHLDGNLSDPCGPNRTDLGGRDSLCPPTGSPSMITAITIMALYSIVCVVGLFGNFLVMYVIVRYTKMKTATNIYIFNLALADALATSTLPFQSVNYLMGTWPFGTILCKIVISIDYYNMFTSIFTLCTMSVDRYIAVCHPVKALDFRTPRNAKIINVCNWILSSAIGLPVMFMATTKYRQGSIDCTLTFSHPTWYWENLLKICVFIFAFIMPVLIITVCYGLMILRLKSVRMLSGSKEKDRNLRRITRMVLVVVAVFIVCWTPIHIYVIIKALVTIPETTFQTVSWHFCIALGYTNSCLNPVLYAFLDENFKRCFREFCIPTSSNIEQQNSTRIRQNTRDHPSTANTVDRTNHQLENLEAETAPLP

Row | SMILES | cAMP Max Resp. (mu opioid receptor (MOR) [1]; [3]) | EC50 (mu opioid receptor (MOR) [1]; [4]) [µM] | EC50 (mu opioid receptor (MOR) [1]; [5]) [µM] | cAMP Max. Resp. (mu opioid receptor (MOR) [1]) | β-arr Max. Resp. (mu opioid receptor (MOR) [2]) | β-arrestin Max Response (mu opioid receptor (MOR) [2]; activity switching by MOR PAMs) | EC50 (mu opioid receptor (MOR) [2]; [6]) [µM] | EC50 (mu opioid receptor (MOR) [2]; read-out: β-arr. EC50) [µM] | EC50 (mu opioid receptor (MOR) [1]; [7]) [µM]
1 | O=S(=O)(c1ccc(Cl)cc1)N1CCCCC1c1cc(C(F)(F)F)ccn1 (racemic) [compound 79] | D (D represents a maximal response of < 40%) | > 2.1 | > 2.1 | D (D represents a maximal response of < 40%) | F (F represents a maximal response of > 60%) | F (F represents a maximal response of >60%) | > 2.1 | > 2.1 | –
2 | N#Cc1cc(C2CCCCN2S(=O)(=O)c2ccc(Cl)cc2)ccn1 (racemic) [compound 80] | – | – | > 2.1 | D (D represents a maximal response of < 40%) | E (E represents a maximal response of 40-60%) | – | – | > 2.1 | –
3 | COC(=O)c1cc(C2CCCCN2S(=O)(=O)c2ccc(Cl)cc2)ccn1 (racemic) [compound 81] | – | – | > 2.1 | D (D represents a maximal response of < 40%) | E (E represents a maximal response of 40-60%) | – | – | > 2.1 | –
4 | O=S(=O)(c1ccc(Cl)cc1)N1CCCCC1c1cncc(F)c1 (racemic) [compound 82] | – | – | > 2.1 | D (D represents a maximal response of < 40%) | D (D represents a maximal response of < 40%) | – | – | > 2.1 | –
5 | O=S(=O)(c1ccc(Cl)cc1)N1CCCCC1c1cncc(C(F)(F)F)c1 (racemic) [compound 83] | D (D represents a maximal response of < 40%) | > 2.1 | > 2.1 | D (D represents a maximal response of < 40%) | D (D represents a maximal response of < 40%) | D (D represents a maximal response of < 40%) | > 2.1 | > 2.1 | –
6 | COc1ccc(C2CCCCCN2S(=O)(=O)c2ccc(Cl)cc2)cc1Br (racemic) [compound 84] | – | – | > 2.1 | D (D represents a maximal response of < 40%) | E (E represents a maximal response of 40-60%) | – | – | > 2.1 | –
7 | CC[C@@H]1CCCN(c2nc(Cl)ncc2F)[C@@H]1c1ccc(OC)c(Br)c1 (relative stereo) [compound 250] | – | – | – | D (D represents a maximal response of < 40%) | F (F represents a maximal response of > 60%) | – | – | > 2.1 | > 2.1
8 | O[C@H]1CC[C@H](c2cc(F)cc(C(F)(F)F)c2)N(c2nc(Cl)ncc2F)C1 (relative stereo) [compound 310] | – | – | 0.7 to 2.1 | F (F represents a maximal response of > 60%) | F (F represents a maximal response of > 60%) | – | – | > 2.1 | –
9 | COc1ccc(C2CC(C)CN2S(=O)(=O)c2ccc(Cl)cc2)cc1Br (single isomer, unassigned) [Compound 118] | – | – | > 2.1 | D (D represents a maximal response of < 40%) | E (E represents a maximal response of 40-60%) | – | – | 0.7 to 2.1 | –
10 | COc1ccc(C2CC(C(F)(F)F)CN2S(=O)(=O)c2ccc(Cl)cc2)cc1Br (single isomer, unassigned) [Compound 119] | – | – | > 2.1 | D (D represents a maximal response of < 40%) | E (E represents a maximal response of 40-60%) | – | – | > 2.1 | –
11 | COc1ccc(C2CC(C(F)(F)F)CN2S(=O)(=O)c2ccc(Cl)cc2)cc1Br (single isomer, unassigned) [Compound 120] | – | – | > 2.1 | F (F represents a maximal response of > 60%) | F (F represents a maximal response of > 60%) | – | – | > 2.1 | –
12 | Fc1cc(C2COCCN2c2nc(Cl)ncc2F)cc(C(F)(F)F)c1 (single isomer, unassigned) [Compound 344] | – | – | < 0.7 | D (D represents a maximal response of < 40%) | D (D represents a maximal response of < 40%) | – | – | < 0.7 | –
13 | Fc1cc(C2COCCN2c2nc(Cl)ncc2F)cc(C(F)(F)F)c1 (single isomer, unassigned) [Compound 347] | – | – | < 0.7 | D (D represents a maximal response of < 40%) | D (D represents a maximal response of < 40%) | – | – | < 0.7 | –
14 | COc1ccc(C2CCCCN2S(=O)(=O)c2ccc(Cl)cc2)cc1Br (single isomer, unassigned) [compound 5] | – | – | – | D (D represents a maximal response of < 40%) | D (D represents a maximal response of < 40%) | – | – | > 2.1 | > 2.1
15 | Fc1ccc(C2CCCCN2c2nc(Cl)ncc2F)cc1Cl (single isomer, unassigned) [compound 10] | – | – | – | E (E represents a maximal response of 40-60%) | F (F represents a maximal response of > 60%) | – | – | < 0.7 | < 0.7
